Laboratory results: patent US11548900B2, “Oxazino-quinazoline and oxazino-quinoline type compound, preparation method and uses thereof” (BEIJING SCITECH-MQ PHARMACEUTICALS LIMITED, priority 2018, dated 2023)

What was measured:
BT474 cells = experiment: Inhibition of cell proliferation, BT474 (CCK-8, 72 h); format: cell-based; conditions: Homo sapiens, BT-474, 72 h incubation
In short: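 BT474 and HCC827 seeded at 10,000 and 3000 cells/well respectively, cultured overnight, then exposed to 10-point 3-fold compound dilutions (top stock 10 mM; 0.25% DMSO final) for 72 h. Viability by CCK-8, OD450; survival normalised to untreated and cell-free blanks, IC50 from curve fit.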

HCC827 cells = experiment: Inhibition of cell proliferation, HCC827 (CCK-8, 72 h); format: cell-based; conditions: Homo sapiens, 72 h incubation
Procedure: The assay for the inhibition of cell proliferation by small molecular compounds was carried out using the method as follows:
1. 600 μL pancreatin was added to a T75 cell culture flask, which was digested in a 37° C. incubator for about 1 min before 5 mL of DMEM complete culture solution was added, blew evenly, transferred to a 15 mL centrifuge tube, and centrifuged at 1000 rpm for 4 min;
2. The supernatant was removed and 5 mL DMEM complete culture solution was added, blew evenly, and 10 μL cell suspension was taken and mixed with 10 μL 0.4% Trypan Blue, and counted using a cell counter;
3. BT474 and HCC827 cell lines were seeded in 96-well plates at a cell density of 10,000 and 3000 cells/well/80 μL, respectively, and cultured overnight. Only sterile water was added to the 36 wells on the periphery of the 96-well plate without adding cells, and only the 60 wells in the center of the 96-well plate were used for cell assays and controls;
4. Dilution of compounds: the compounds were diluted with a 3-fold dilution to make 10 concentrations in total with an initial concentration of 10 mM;
5. 20 μL of different compounds with different concentrations were added to each well, and 20 μL of complete culture solution was added to the remaining wells. The final concentration of DMSO in each well is 0.25%;
6. After 72 h of incubation, 10 μL CCK-8 reagent was added to each well, and incubated at 37° C. for 1-2 h; and the OD value was read at 450 nm;
7. Cell survival rate (%)=[(As−Ab)/(Ac−Ab)]*100%
As: Assay well (medium containing cell, CCK-8, compound)
Ac: Control well (medium containing cell, CCK-8)
Ab: Blank well (CCK-8, medium without cell and compound)
8. The value was imported into Graphpad Prism5 software for the calculation of IC50s (compound concentration at which 50% maximum survival rate is observed).

HER2 kinase = HER2 kinase (Homo sapiens (Human), UniProt P04626); experiment: Inhibition of HER2 kinase activity (ULight-labeled PolyGT substrate); format: biochemical; conditions: HER2 kinase 10 nM, ATP 10 μM, 2 hours
Sequence of HER2 kinase (P04626 23-1255): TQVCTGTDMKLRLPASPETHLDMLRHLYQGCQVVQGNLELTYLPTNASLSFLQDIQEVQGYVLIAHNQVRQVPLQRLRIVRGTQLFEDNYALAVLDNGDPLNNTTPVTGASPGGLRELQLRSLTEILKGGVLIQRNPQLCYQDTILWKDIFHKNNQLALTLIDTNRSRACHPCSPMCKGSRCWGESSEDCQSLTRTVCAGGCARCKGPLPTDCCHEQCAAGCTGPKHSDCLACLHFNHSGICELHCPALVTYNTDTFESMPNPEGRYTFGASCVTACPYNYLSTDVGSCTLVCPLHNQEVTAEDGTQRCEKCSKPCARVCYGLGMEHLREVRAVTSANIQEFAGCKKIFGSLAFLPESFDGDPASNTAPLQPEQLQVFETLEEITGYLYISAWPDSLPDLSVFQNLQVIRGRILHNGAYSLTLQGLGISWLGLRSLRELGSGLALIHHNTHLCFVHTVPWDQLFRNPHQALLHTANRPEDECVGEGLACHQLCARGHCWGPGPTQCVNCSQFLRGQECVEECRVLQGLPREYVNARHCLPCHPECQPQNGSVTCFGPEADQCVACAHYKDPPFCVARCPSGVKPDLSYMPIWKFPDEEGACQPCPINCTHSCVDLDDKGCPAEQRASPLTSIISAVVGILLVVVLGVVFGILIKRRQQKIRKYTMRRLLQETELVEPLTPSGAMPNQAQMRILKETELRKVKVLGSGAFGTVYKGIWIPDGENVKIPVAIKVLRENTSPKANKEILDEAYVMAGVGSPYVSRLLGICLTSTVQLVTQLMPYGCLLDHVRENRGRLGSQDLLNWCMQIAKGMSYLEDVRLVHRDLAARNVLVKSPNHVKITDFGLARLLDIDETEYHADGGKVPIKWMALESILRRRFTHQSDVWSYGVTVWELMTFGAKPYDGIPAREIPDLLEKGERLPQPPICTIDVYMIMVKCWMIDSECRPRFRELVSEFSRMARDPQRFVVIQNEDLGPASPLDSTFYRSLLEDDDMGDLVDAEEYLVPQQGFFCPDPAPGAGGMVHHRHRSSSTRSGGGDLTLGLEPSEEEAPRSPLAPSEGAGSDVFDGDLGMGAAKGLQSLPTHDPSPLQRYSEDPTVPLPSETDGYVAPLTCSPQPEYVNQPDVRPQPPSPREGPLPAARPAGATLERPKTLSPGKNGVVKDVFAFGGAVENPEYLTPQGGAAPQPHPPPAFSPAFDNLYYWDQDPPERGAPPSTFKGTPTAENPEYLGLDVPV
In short: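 Eleven-point 3-fold dilutions (0.042 nM–2.5 μM final, 1% DMSO) tested in duplicate against 10 nM HER2 with 100 nM ULight-labelled PolyGT and 10 μM ATP. Reaction ran 2 h at RT after 5 min pre-incubation; 665/615 nm TR-FRET ratio used to derive inhibition and IC50.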

| Structure (SMILES) | IC50 (BT474 cells) | IC50 (HCC827 cells) | IC50 (HER2 kinase) |
| --- | --- | --- | --- |
| Cc1cccc(COc2ccc(Nc3ncnc4ccc5c(c34)OCCN5C(=O)/C=C/CN(C)C)cc2)c1 [Example 84, (E)-4-(dimethylamino)-1-(10-((4-((3-methylbenzyl)oxy)phenyl)amino)-2,3-dihydro-4H-[1,4]oxazino[2,3-f]quinazolin-4-yl)but-2-en-1-one] | ≤ 50 nM | 50 to 500 nM | ≤ 50 nM |
| CN(C)C/C=C/C(=O)N1CCOc2c1ccc1ncnc(Nc3ccc(OCc4cccc(C#N)c4)cc3)c21 [Example 85, (E)-4-(dimethylamino)-1-(10-((4-((3-cyanobenzyl)oxy)phenyl)amino)-2,3-dihydro-4H-[1,4]oxazino[2,3-f]quinazolin-4-yl)but-2-en-1-one] | ≤ 50 nM | 500 to 5000 nM | ≤ 50 nM |
| COc1cccc(COc2ccc(Nc3ncnc4ccc5c(c34)OCCN5C(=O)/C=C/CN(C)C)cc2)c1 [Example 86, (E)-4-(dimethylamino)-1-(10-((4-((3-methoxybenzyl)oxy)phenyl)amino)-2,3-dihydro-4H-[1,4]oxazino[2,3-f]quinazolin-4-yl)but-2-en-1-one] | ≤ 50 nM | 500 to 5000 nM | ≤ 50 nM |
| CN(C)C/C=C/C(=O)N1CCOc2c1ccc1ncnc(Nc3ccc(OCc4ccc(Cl)cc4)cc3)c21 [Example 87, (E)-4-(dimethylamino)-1-(10-((4-((4-chlorobenzyl)oxy)phenyl)amino)-2,3-dihydro-4H-[1,4]oxazino[2,3-f]quinazolin-4-yl)but-2-en-1-one] | 50 to 500 nM | 500 to 5000 nM | ≤ 50 nM |
| Cc1ccc(COc2ccc(Nc3ncnc4ccc5c(c34)OCCN5C(=O)/C=C/CN(C)C)cc2)cc1 [Example 88, (E)-4-(dimethylamino)-1-(10-((4-((4-methylbenzyl)oxy)phenyl)amino)-2,3-dihydro-4H-[1,4]oxazino[2,3-f]quinazolin-4-yl)but-2-en-1-one] | ≤ 50 nM | 500 to 5000 nM | ≤ 50 nM |
| CN(C)C/C=C/C(=O)N1CCOc2c1ccc1ncnc(Nc3ccc(OCc4cc(F)ccc4F)cc3)c21 [Example 89, (E)-1-(10-((4-((2,5-difluorobenzyl)oxy)phenyl)amino)-2,3-dihydro-4H-[1,4]oxazino[2,3-f]quinazolin-4-yl)-4-(dimethylamino)but-2-en-1-one] | ≤ 50 nM | 500 to 5000 nM | ≤ 50 nM |
| CN(C)C/C=C/C(=O)N1CCOc2c1ccc1ncnc(Nc3ccc(OCc4cc(F)ccc4Cl)cc3)c21 [Example 90, (E)-1-(10-((4-((2-chloro-5-fluorobenzyl)oxy)phenyl)amino)-2,3-dihydro-4H-[1,4]oxazino[2,3-f]quinazolin-4-yl)-4-(dimethylamino)but-2-en-1-one] | ≤ 50 nM | 500 to 5000 nM | ≤ 50 nM |
| CN(C/C=C/C(=O)N1CCOc2c1ccc1ncnc(Nc3ccc(OCc4ccccn4)c(Cl)c3)c21)C1CC1 [Example 100, (E)-1-(10-((3-chloro-4-(pyridin-2-ylmethoxy)phenyl)amino)-2,3-dihydro-4H-[1,4]oxazino[2,3-f]quinazolin-4-yl)-4-(cyclopropyl(methyl)amino)but-2-en-1-one] | ≤ 50 nM | 50 to 500 nM | ≤ 50 nM |
| CC(C)NC/C=C/C(=O)N1CCOc2c1ccc1ncnc(Nc3ccc(OCc4ccccn4)c(Cl)c3)c21 [Example 102, (E)-1-(10-((3-chloro-4-(pyridin-2-ylmethoxy)phenyl)amino)-2,3-dihydro-4H-[1,4]oxazino[2,3-f]quinazolin-4-yl)-4-(isopropylamino)but-2-en-1-one] | ≤ 50 nM | 50 to 500 nM | ≤ 50 nM |
| O=C(/C=C/CN1CCOCC1)N1CCOc2c1ccc1ncnc(Nc3ccc(OCc4ccccn4)c(Cl)c3)c21 [Example 103, (E)-1-(10-((3-chloro-4-(pyridin-2-ylmethoxy)phenyl)amino)-2,3-dihydro-4H-[1,4]oxazino[2,3-f]quinazolin-4-yl)-4-morpholinobut-2-en-1-one] | ≤ 50 nM | 50 to 500 nM | ≤ 50 nM |
